Publication PMC7395048 (Archives of Toxicology, 2020)
Entries after “also recorded” stand apart in the source; their conditions may differ. Marks after values point to notes of the source that are not given here.

Key:
[1] = test system: hiPSC-CM; assay: hiPSC-CM MEA assay (FPDc, extracellular field potential); details: for cytotoxicity at the test concentrations: up to 30 µM, data not shown
Protocol: Briefly, each well of the MEA chips was precoated with 50 μg/ml fibronectin for 3 h in the incubator at 37 °C with 5% CO2. The fibronectin coating solution was aspirated before seeding. Cells were thawed in the incubator at 37 °C for exactly 4 min and carefully transferred to a 50-ml tube. The original vial was rinsed with serum free Pluricyte® Cardiomyocyte Medium and added drop-wise to the tube containing the cardiomyocytes. […] Then, the supernatant was removed and medium was drop-wisely added to reach the aimed concentration of cells in the suspension (10^4 cells/μl). 2-μl cell suspension per well was placed on the six-well MEA chips in a density of 10^4 cells/μl. After 3-h incubation (37 °C, 5% CO2), 200 μl of medium was filled into each well of the MEA chips which were subsequently incubated at 37 °C with 5% CO2 and refreshed with medium every 2 days.
At 7–8 days after seeding, MEA chips were placed on the headstage of a MEA2100-system (MCS GmbH) integrated with the chamber providing a stable atmosphere (37 °C, 5% CO2) to record the extracellular field potential (Fig. 2) of spontaneous beating hiPSC-CM. After an equilibration time of 20 min, half of the medium (100 μl) in each well was replaced by culture medium containing 0.2% (v/v) DMSO to reach a final concentration of 0.1% (v/v) DMSO, which was used as baseline condition. […] At each concentration, the extracellular field potential was recorded for 1 min after 10-min exposure. […] Same test concentrations were chosen for EDDP and EMDP, which enables definition of concentration-dependent curves for EDDP and EMDP that allow potency comparison.
One well of 0.1% (v/v) DMSO on each MEA chip was used as the vehicle control well and run at the same time as the compound exposure wells to correct for time- and DMSO-dependent effects on the field potential. A detailed exposure scheme can be found in Fig. S1. Data were collected using Cardio 2D software (MCS GmbH) with a sample frequency of 10 kHz and a 0.1–3.5-kHz band-pass filter.
Field potential duration (FPD) was defined as duration between the beginning of the sodium spike and the repolarizing peak (Fig. 2). RR-intervals were defined as the duration between two depolarization peaks (Fig. 2). The FPD and RR-interval were measured as the average of at least 30 beats from 1-min recording at each concentration of the test compound.
In this formula, the FPD and RR-interval are expressed in seconds. Data were collected from at least three independent experiments (4–8 wells, 26–38 electrodes), using a new vial of cells (all from the same batch) at each independent experiment. […] The concentrations inducing irregularities in the field potential trace (Fig. S2) were also noted.
The concentration–response curves were plotted with GraphPad Prism 5.0 using the four-parameters logistic fit (GraphPad Software Inc., San Diego, USA). Each data point is presented as the mean value of at least three independent experiments ± standard deviation (SD). Statistical significance of the changes in response of cells exposed to the compound compared to the solvent control was analyzed by one-way ANOVA followed by post Dunnett test. Values of p < 0.05 were regarded as statistically significant (p < 0.05: *, p < 0.01: ** and p < 0.001: ***). Statistical analysis was performed by GraphPad Prism 5.0 (GraphPad Software Inc.).

[2] = In vitro incubations with pooled human liver microsomes; details: EDDP as substrate, 1000 µM
Protocol: The test concentrations were chosen to enable adequate analysis of Michaelis–Menten kinetics. After one-min pre-incubation of this solution at 37 °C, the reactions were initiated by addition of human liver microsomes giving a final concentration of 0.5 mg/ml microsomal protein and incubations were performed in a shaking water bath at 37 °C for 40 min. Control incubations were performed in the absence of NADPH which was replaced with Tris–HCl. The reactions were terminated by addition of 40-µl ice-cold acetonitrile. Samples were kept on ice for at least 20 min and then centrifuged at 18,000g for 5 min at 4 °C to precipitate microsomal proteins.
Vmax and Km were obtained by fitting the data to Eq. (2) in GraphPad Prism 5.0 (GraphPad Software Inc.). Data were collected from three independent experiments and each data point is presented as the mean value ± SD.

[3] = design: method as in Hsu et al. ([2013]); details: subjects on methadone maintenance treatment; ref Hsu et al. ([2013]); cited from earlier work
[4] = test system: hERG channels; details: ref Eap et al. [2007], cited from earlier work
[5] = ref Foster [2001]; cited from earlier work
[6] = cited from earlier work
[7] = RED assay, unbound fraction in pooled human plasma
Protocol: (§1) Then, 25 µl of post-dialysis samples were collected from the sample chambers and transferred to test sample tubes followed by an addition of 25 µl PBS. Equal volumes of post-dialysis samples collected from the buffer chamber which were then mixed with 25 µl of in vitro medium or human plasma in the buffer sample tubes. Then, both samples were precipitated using 300-µl cold acetonitrile/water (90/10 v/v). The samples were put on ice for 30 min followed by centrifugation for 30 min at 15,000g. Then, supernatants were collected for UPLC–PDA analysis.
(§2) The measurements were performed in triplicate in two independent experiments.

[8] = RED assay, unbound fraction in in vitro hiPSC-CM MEA assay medium; details: in vitro hiPSC-CM MEA assay medium (serum-free)
Protocol: as §1, §2

SMILES: CC=C1N(C)C(C)CC1(c1ccccc1)c1ccccc1 (stereo not drawn) [EDDP, 2-ethylidene-1,5-dimethyl-3,3-diphenylpyrrolidine]
- BMC20, prolongation of FPDc ([1]; 20% change in FPDc over control, cumulative addition, 10-min exposure): 2.3 µM
- unbound BMC20 ([1]; BMC20 corrected for unbound fraction in medium): 2.07 µM
- concentration at which cessation of beating was observed ([1]; human, 10 min): 30 µM
- concentration from which arrhythmia-like waveforms were induced ([1]; tested up to 30 µM): ≥ 3 µM
- cytotoxicity at the test concentrations [1]: no cytotoxicity was observed
- EMDP formation from EDDP [2]: formation of EMDP was neither detectable
- BPr (blood/plasma ratio) [3]: 0.87^c
- hERG channel block ([4]; Katchman et al. [2002]): weaker hERG channel blocker compared to methadone
- recovery of EDDP in feces [5]: up to 39%
- free blood Cmax of EDDP ([6]; oral methadone 57.5 mg/day, estimated from reported EDDP data, ref De Vos et al. ([1995])): 0.05 µM
- fraction unbound at 5 h, 150 µM [7]: 0.3 ± 0.015
- fraction unbound at 5 h, 150 µM [8]: 0.9 ± 0.072

SMILES: CCC1=NC(C)CC1(c1ccccc1)c1ccccc1 (stereo not drawn) [EMDP, 2-ethyl-5-methyl-3,3-diphenylpyrroline]
- concentration shortening the FPDc by 20% (BMC20 for decreasing FPDc) ([1]; cumulative addition, 10-min exposure): 3.8 µM
- concentration causing beating arrest in certain wells ([1]; in certain wells): 30 µM
- arrhythmia-type waveforms / FPDc prolongation ([1]; test range 0.1-30 µM): without inducing arrhythmia-type waveforms; also recorded: Neither FPDc prolongation nor arrhythmia-type waveforms were observed
- cytotoxicity at the test concentrations [1]: no cytotoxicity was observed
- hERG channel inhibition [4]: not inhibit hERG channels
- in vivo total plasma concentration of EMDP ([6]; after clinical relevant dosing of methadone, ref Alburges et al. [1996]): less than 0.04 µM
